The values below come from PubChem BioAssay (NCI).

Test systems include CCRF-CEM leukemia; HCT-116 colon; HT29 colon; KM12 colon; LOX IMVI melanoma; M14 melanoma; OVCAR-5 ovarian; RPMI-8226 leukemia; SK-OV-3 ovarian; RXF 393 renal.
Common to all, as to assay: growth of human tumour cells (NCI), 48 h

SMILES strings stand for the structures.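 Compound exposure: 48 hours, 5 concentrations, 96-well plates. GI50 = concentration required for 50% inhibition of growth. At the TGI there is no net growth.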

For `COc1ccc(-c2cc(-c3cc(OC)c(OC)c(OC)c3)c(C#N)c(N3CCOCC3)n2)cc1O`, the GI50 was 6.46 µM in the test on CCRF-CEM leukemia; 3.36 µM in the test with HCT-116 colon; 10.3 µM with HT29 colon; 3.06 µM with KM12 colon; 0.238 µM with LOX IMVI melanoma; 10.1 µM with M14 melanoma. In addition, the GI50 in the test with RPMI-8226 leukemia was 0.514 µM; with SK-OV-3 ovarian, 14.8 µM. The TGI was above 77.9 µM with CCRF-CEM leukemia; above 83.1 µM in the test on HCT-116 colon; above 100 µM in the test on HT29 colon; above 100 µM in the test with KM12 colon; 11.7 µM in the test with LOX IMVI melanoma; above 100 µM in the test with M14 melanoma. The results for the TGI with OVCAR-5 ovarian, in the test with RPMI-8226 leukemia and in the test on SK-OV-3 ovarian were above 100 µM, 3.6 µM and above 100 µM, respectively.

On to `O=C(O)C1(Cc2cccc(Nc3nccs3)n2)CCC(Oc2cccc(Cl)c2F)CC1` (stereo not drawn), for which the GI50 with CCRF-CEM leukemia was 1.23 µM; in the test with HCT-116 colon it was 0.64 µM; in the test with HT29 colon, 7.56 µM; in the test with KM12 colon, 0.204 µM; in the test with LOX IMVI melanoma it was 7.62 µM; in the test on M14 melanoma it was 2.96 µM. Also, the GI50 with OVCAR-5 ovarian was 13.8 µM; with RXF 393 renal, 0.0488 µM; with SK-OV-3 ovarian, 12.8 µM. For the same molecule, the TGI is above 55.1 µM with CCRF-CEM leukemia; 30.5 µM in the test on HCT-116 colon; 24.2 µM with HT29 colon; 29.3 µM in the test on KM12 colon; 22.5 µM with LOX IMVI melanoma; 30.2 µM in the test with M14 melanoma. Besides, the TGI in the test with OVCAR-5 ovarian is above 81.7 µM; in the test with RXF 393 renal, 12.8 µM; with SK-OV-3 ovarian, 46 µM.

Consider `CCc1nc(Cl)nc(Cl)c1Cl`, for which the TGI worked out at 0.771 µM in the test on CCRF-CEM leukemia; 4.62 µM with HCT-116 colon; 5.04 µM in the test on HT29 colon; 15.5 µM in the test on KM12 colon; 0.394 µM in the test with LOX IMVI melanoma; 5.29 µM in the test on M14 melanoma. For the same molecule, the figures for the TGI in the test with OVCAR-5 ovarian, in the test with RXF 393 renal and in the test with SK-OV-3 ovarian were 9.81 µM, 4.37 µM and 18.4 µM, respectively.

In the case of `CC/C(C)=C1\OC(=O)C(C)C(O)C(Cc2cccnc2)NC(=O)C(NC(=O)c2ncccc2O)C(C)OC1=O` (stereo not drawn), the TGI in the test on HCT-116 colon, in the test on HT29 colon, in the test with KM12 colon, with LOX IMVI melanoma, with M14 melanoma and in the test with OVCAR-5 ovarian was above 100 µM each time. Also, the TGI in the test with RPMI-8226 leukemia and in the test with SK-OV-3 ovarian was above 100 µM throughout.

Regarding `Nc1nnc(Cn2c(-c3ccccc3)nc3ccc(Br)cc3c2=O)s1`, the GI50 was 16.3 µM in the test with CCRF-CEM leukemia; 13.6 µM in the test with HCT-116 colon; 48.1 µM in the test with HT29 colon; 25.1 µM with KM12 colon; 26.1 µM in the test on LOX IMVI melanoma; 49 µM with M14 melanoma. For the same molecule, the GI50 was above 100 µM in the test on OVCAR-5 ovarian, 18.1 µM in the test with RPMI-8226 leukemia and above 100 µM in the test on SK-OV-3 ovarian. Moreover, the TGI is 67.6 µM with CCRF-CEM leukemia; 50.3 µM in the test with HCT-116 colon; above 100 µM with HT29 colon; above 100 µM with KM12 colon; above 100 µM in the test with LOX IMVI melanoma; above 100 µM with M14 melanoma. For the same molecule, the TGI was above 100 µM with OVCAR-5 ovarian, 62.8 µM in the test on RPMI-8226 leukemia and above 100 µM in the test with SK-OV-3 ovarian.

In the case of `COc1ccc(C(=O)c2cc3c(N)c(C(=O)Nc4cccc(Cl)c4C)sc3nc2C)cc1`, the GI50 is 0.0889 µM in the test on CCRF-CEM leukemia; 0.0989 µM in the test with HCT-116 colon; 0.0863 µM in the test with HT29 colon; 0.106 µM in the test on KM12 colon; 0.154 µM in the test on LOX IMVI melanoma; 0.0715 µM with M14 melanoma. Besides, the GI50 in the test on OVCAR-5 ovarian was 0.266 µM; in the test with RPMI-8226 leukemia, 0.0918 µM; with SK-OV-3 ovarian, 0.161 µM. Further, the TGI in the test with CCRF-CEM leukemia, with HCT-116 colon, in the test on HT29 colon, in the test with KM12 colon, with LOX IMVI melanoma and in the test with M14 melanoma was above 25 µM in each case. Further, the TGI with OVCAR-5 ovarian and in the test on SK-OV-3 ovarian was above 25 µM in each case.

With `O=C(O)Cn1c(=O)[nH]c(=O)c2c1ncn2Cc1ccccc1`, the TGI in the test on CCRF-CEM leukemia, in the test with HCT-116 colon, with HT29 colon, with KM12 colon, in the test with M14 melanoma and with OVCAR-5 ovarian was above 100 µM each time. Further, the TGI in the test on RPMI-8226 leukemia and in the test on SK-OV-3 ovarian was above 100 µM throughout.

As for `CC(C)(C)C(=O)O[C@@H]1COC2C(O)COC21` (stereo partly drawn), the TGI in the test on CCRF-CEM leukemia, with HCT-116 colon, in the test on HT29 colon, in the test with KM12 colon, in the test with LOX IMVI melanoma and with M14 melanoma was above 100 µM in each case. Also, the TGI in the test on OVCAR-5 ovarian and with RXF 393 renal was above 100 µM throughout.

`CC(=O)OC1CC2C(C)(C)C(=O)C=CC2(C)C2CCC3(C)C(c4ccoc4)OC(=O)C4OC43C12C` (stereo not drawn): the TGI is 11.3 µM in the test with HCT-116 colon; 39 µM with HT29 colon; 19.4 µM with KM12 colon; 28.1 µM in the test on M14 melanoma; above 100 µM in the test with OVCAR-5 ovarian; 8.02 µM with RPMI-8226 leukemia. Moreover, the TGI stood at 27.2 µM with RXF 393 renal and 48.7 µM in the test with SK-OV-3 ovarian.

Turning to `CC(=O)[O-].O=C([CH-]C(=O)c1ccccc1)c1ccccc1.O=C([CH-]C(=O)c1ccccc1)c1ccccc1.[Y+3]`, the GI50 was 4.97 µM with HCT-116 colon; 7.69 µM with HT29 colon; 4.36 µM in the test on KM12 colon; 4.95 µM with LOX IMVI melanoma; 5.34 µM with M14 melanoma; 17.3 µM in the test on OVCAR-5 ovarian. In addition, the GI50 with RPMI-8226 leukemia was 4.47 µM; in the test with SK-OV-3 ovarian it was 8.31 µM. Moreover, the TGI in the test with HCT-116 colon was determined as 19.3 µM; in the test with HT29 colon, 20.7 µM; with KM12 colon, 24.5 µM; in the test on LOX IMVI melanoma it was 23.4 µM; with M14 melanoma, 18.9 µM; with OVCAR-5 ovarian, 80.6 µM. The TGI in the test with RPMI-8226 leukemia was determined as 33 µM; in the test on SK-OV-3 ovarian it was 37.1 µM.

As for `N#CC1(C=O)c2ccccc2C=CN1C(=O)c1ccccc1` (stereo not drawn), the TGI in the test on CCRF-CEM leukemia is 78.4 µM; in the test with HCT-116 colon, above 100 µM; in the test with HT29 colon, above 100 µM; in the test with KM12 colon, above 100 µM; with M14 melanoma, 92.4 µM; in the test on RXF 393 renal, 53.8 µM.
